Paper PMC7714403 (JCI Insight, 2020)
Where “and” joins values, the source holds several entries; their conditions need not be identical. Identical values can stand only once.

How the values were obtained:
[1] = target: T1, AURKA (Homo sapiens, UniProt O14965); test: KdELECT binding assay
T1 construct: purchased Eurofins DiscoverX

[2] = target: T2, FLT3 (Homo sapiens, UniProt P36888); test: KdELECT binding assay; details: FLT3 WT
T2 construct: purchased Eurofins DiscoverX

[3] = target: T3, JAK3 (Homo sapiens, UniProt P52333); test: KdELECT binding assay
T3 construct: purchased Eurofins DiscoverX

[4] = target: T4, TYK2 (Homo sapiens, UniProt P29597); test: KdELECT binding assay
T4 construct: purchased Eurofins DiscoverX

[5] = target: FLT3 ITD (Homo sapiens, UniProt P36888, ITD); test: KdELECT binding assay
[6] = target: FLT3-ITD and TKD mutants; test: KdELECT binding assay; details: range over FLT3-ITD and TKD mutants
[7] = system: MV4-11, MOLM13, and MOLM13-RES cells; test: Apoptosis assay (annexin V); type: cell-based, human; details: 20 nM, 24 and 48 hours
Experimental: (§1) Apoptosis and CD11b expression assays
(§2) At indicated time points, cells were collected and washed with PBS. CD11b expression was measured using anti-CD11b -APC antibody (BioLegend, San Diego, CA). Each sample was suspended in 100uL of FACS buffer (PBS + 4% FBS) with 1uL of antibody, incubated on ice for 15 minutes in the dark and washed once in PBS. DAPI (final concentration 1ug/mL [ThermoFisher Scientific]) was added to each sample as a viability dye. For apoptosis assay, cells were incubated with annexin V-APC (BioLegend) according to manufacturer’s instructions. CD11b expression and apoptosis were measured by BD LSR II flow cytometer. Two-color cytometry was performed, and data were […]
(§3) points, cells were collected and washed with 0.1% EDTA PBS (Ricca Chemical Company, Arlington, TX) followed by only PBS. Cells were then fixed on ice with ice-cold 70% ethanol for 30 minutes . Cells were either stored at -20°C for up to 1 month or processed immediately. Cells were spun down at 450 x g for 10 minutes and stained

[8] = system: OCI-AML3 cells; test: Apoptosis assay (annexin V); type: cell-based, human; details: 20–50 nM, 72 hours
Experimental: as §1, §2, §3

[9] = target: ATR (Homo sapiens, UniProt Q13535); test: KiNativ, OCI cells live cell; type: cell-based; details: 2 h, labeling site ATP, peptide […]
[10] = target: AurB (Homo sapiens, UniProt Q96GD4); test: KiNativ, OCI cells live cell; type: cell-based; details: 2 h, labeling site Lys1, peptide […]
[11] = target: CaMKK2 (Homo sapiens, UniProt Q96RR4); test: KiNativ, OCI cells live cell; type: cell-based; details: 2 h, labeling site Lys2, peptide […]
[12] = target: CDK7 (Homo sapiens, UniProt P50613); test: KiNativ, OCI cells live cell; type: cell-based; details: 2 h, labeling site Lys2, peptide […]
[13] = target: CHK1 (Homo sapiens, UniProt O14757); test: KiNativ, OCI cells live cell; type: cell-based; details: labeling site Lys2, peptide DIKPENLLLDER
[14] = target: CK1g3 (Homo sapiens, UniProt Q9Y6M4); test: KiNativ, OCI cells live cell; type: cell-based; details: labeling site Lys2, peptide DVKPENFLIGRPGNK
[15] = target: T5, JAK1 domain2 (Homo sapiens, UniProt P23458); test: KiNativ, OCI cells live cell; type: cell-based
T5 construct: JAK1 domain2

[16] = target: MAP2K7 (Homo sapiens, UniProt O14733); test: KiNativ, OCI cells live cell; type: cell-based; details: labeling site Lys2, peptide DVKPSNILLDER
[17] = system: MST3, MST4, YSK1; test: KiNativ, OCI cells live cell; type: cell-based, human; details: labeling site Activation Loop, peptide LADFGVAGQLTDTQIKR
[18] = target: PAK2 (Homo sapiens, UniProt Q13177); test: KiNativ, OCI cells live cell; type: cell-based; details: 2 h
[19] = target: PIP4K2A (Homo sapiens, UniProt P48426); test: KiNativ, OCI cells live cell; type: cell-based; details: 2 h, labeling site ATP, peptide […]
[20] = target: PKR (Homo sapiens, UniProt P19525); test: KiNativ, OCI cells live cell; type: cell-based
[21] = target: RAF1 (Homo sapiens, UniProt P04049); test: KiNativ, OCI cells live cell; type: cell-based; details: 2 h, labeling site Lys2, peptide […]
[22] = target: TLK2 (Homo sapiens, UniProt Q86UE8); test: KiNativ, OCI cells live cell; type: cell-based; details: 2 h
Sequence of TLK2 (Q86UE8 whole entry): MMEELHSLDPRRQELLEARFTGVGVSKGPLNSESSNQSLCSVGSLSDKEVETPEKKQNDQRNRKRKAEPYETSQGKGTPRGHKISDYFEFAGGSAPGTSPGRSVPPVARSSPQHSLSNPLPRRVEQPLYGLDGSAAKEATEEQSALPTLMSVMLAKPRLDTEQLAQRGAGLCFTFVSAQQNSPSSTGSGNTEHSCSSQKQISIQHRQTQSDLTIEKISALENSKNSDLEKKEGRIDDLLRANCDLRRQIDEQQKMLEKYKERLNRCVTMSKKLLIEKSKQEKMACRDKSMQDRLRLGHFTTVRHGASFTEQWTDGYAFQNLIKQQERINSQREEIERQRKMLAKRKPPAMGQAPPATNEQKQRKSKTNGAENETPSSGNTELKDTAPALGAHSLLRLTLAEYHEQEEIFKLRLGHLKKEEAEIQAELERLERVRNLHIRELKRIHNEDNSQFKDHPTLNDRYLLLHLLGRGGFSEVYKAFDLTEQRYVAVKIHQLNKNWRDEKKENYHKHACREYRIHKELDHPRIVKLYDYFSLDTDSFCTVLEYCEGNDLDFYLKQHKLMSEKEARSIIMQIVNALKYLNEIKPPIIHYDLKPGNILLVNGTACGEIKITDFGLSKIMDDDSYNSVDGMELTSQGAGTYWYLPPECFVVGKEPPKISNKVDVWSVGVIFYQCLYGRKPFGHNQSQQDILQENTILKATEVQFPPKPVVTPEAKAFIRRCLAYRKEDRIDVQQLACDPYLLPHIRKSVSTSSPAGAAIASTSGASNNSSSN

Sequence of PAK2 (Q13177 whole entry): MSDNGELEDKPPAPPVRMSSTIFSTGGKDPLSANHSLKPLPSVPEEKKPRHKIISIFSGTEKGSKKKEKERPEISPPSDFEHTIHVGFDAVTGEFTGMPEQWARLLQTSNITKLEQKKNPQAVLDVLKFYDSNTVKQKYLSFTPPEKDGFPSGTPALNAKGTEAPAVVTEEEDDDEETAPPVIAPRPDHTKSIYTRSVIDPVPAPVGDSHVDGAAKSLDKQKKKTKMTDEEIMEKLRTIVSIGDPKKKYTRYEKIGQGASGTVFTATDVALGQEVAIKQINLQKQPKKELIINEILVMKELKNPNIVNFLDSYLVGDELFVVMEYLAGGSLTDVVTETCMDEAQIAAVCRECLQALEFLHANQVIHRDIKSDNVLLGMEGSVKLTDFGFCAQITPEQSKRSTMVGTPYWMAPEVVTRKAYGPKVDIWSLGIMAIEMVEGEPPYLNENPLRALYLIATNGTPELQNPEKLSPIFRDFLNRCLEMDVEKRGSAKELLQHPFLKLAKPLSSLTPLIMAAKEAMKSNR
T5 sequence (P23458 whole entry, the tested form may be a part): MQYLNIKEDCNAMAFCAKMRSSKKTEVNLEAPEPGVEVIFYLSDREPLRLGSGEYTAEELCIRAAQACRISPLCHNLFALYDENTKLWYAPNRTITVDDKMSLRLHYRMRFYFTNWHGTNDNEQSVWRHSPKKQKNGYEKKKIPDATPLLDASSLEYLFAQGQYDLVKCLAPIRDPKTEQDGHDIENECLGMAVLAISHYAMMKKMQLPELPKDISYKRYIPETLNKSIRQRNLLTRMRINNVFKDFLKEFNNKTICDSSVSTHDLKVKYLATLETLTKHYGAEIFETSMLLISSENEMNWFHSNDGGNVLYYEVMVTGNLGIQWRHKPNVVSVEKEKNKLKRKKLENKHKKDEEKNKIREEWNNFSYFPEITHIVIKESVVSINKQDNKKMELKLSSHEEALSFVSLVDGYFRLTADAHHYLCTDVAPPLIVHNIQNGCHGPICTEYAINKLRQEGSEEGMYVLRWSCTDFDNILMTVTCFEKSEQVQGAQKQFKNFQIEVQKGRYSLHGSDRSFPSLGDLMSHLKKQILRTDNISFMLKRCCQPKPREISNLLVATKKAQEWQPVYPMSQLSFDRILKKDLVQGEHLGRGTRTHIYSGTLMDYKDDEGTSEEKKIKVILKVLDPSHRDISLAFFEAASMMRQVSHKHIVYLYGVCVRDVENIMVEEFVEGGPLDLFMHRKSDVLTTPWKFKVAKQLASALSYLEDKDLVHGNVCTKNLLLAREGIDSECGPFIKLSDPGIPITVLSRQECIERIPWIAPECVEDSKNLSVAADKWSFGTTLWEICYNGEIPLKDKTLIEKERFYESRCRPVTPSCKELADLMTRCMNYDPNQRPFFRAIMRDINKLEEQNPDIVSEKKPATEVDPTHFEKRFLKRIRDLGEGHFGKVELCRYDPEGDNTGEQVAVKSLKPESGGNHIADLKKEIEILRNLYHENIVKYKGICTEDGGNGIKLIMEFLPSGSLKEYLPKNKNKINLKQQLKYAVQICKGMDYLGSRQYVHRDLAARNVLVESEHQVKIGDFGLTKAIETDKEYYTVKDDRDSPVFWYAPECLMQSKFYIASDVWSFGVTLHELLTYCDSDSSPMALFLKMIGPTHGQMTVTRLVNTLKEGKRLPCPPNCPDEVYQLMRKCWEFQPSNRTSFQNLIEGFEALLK
Sequence of PKR (P19525 whole entry): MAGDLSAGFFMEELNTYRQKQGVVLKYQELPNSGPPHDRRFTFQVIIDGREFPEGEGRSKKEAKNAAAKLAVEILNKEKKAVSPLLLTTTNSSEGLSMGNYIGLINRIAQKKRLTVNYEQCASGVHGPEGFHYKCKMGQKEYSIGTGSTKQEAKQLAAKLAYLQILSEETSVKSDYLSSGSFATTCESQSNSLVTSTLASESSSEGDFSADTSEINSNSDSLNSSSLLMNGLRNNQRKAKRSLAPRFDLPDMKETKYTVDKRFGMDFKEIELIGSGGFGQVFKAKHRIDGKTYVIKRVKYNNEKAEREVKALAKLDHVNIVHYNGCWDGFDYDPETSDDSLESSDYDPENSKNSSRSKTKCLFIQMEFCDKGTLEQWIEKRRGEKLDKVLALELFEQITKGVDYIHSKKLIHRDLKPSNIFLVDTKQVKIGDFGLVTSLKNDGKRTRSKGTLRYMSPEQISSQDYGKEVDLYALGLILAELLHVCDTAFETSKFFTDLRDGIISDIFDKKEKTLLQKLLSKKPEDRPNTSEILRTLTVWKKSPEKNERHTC
T2 sequence (P36888 27-993): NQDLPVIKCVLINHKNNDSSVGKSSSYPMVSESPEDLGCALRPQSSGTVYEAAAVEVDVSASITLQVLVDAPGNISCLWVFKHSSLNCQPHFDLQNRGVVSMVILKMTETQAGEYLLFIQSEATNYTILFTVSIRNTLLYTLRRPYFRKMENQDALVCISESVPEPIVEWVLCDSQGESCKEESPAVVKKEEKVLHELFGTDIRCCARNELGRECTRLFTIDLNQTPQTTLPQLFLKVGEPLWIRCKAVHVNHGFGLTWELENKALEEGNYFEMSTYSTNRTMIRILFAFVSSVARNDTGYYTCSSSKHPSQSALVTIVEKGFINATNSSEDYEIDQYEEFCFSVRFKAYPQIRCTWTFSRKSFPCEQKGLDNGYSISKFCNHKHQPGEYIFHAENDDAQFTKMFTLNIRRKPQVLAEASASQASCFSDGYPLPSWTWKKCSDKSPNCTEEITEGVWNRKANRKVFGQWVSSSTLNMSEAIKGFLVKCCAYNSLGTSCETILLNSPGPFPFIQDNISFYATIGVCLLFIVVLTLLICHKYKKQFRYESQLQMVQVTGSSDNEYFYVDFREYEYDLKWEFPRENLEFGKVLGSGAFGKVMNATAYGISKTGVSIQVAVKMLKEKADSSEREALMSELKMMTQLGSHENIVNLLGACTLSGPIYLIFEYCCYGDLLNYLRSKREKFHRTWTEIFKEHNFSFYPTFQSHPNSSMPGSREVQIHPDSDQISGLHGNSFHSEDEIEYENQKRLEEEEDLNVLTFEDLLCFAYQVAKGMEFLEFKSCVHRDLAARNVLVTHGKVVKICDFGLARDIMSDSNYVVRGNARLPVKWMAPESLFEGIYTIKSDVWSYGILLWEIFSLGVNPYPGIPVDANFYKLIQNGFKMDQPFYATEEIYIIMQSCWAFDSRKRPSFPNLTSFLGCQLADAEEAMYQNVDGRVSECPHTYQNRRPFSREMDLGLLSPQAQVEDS
T1 sequence (O14965 whole entry): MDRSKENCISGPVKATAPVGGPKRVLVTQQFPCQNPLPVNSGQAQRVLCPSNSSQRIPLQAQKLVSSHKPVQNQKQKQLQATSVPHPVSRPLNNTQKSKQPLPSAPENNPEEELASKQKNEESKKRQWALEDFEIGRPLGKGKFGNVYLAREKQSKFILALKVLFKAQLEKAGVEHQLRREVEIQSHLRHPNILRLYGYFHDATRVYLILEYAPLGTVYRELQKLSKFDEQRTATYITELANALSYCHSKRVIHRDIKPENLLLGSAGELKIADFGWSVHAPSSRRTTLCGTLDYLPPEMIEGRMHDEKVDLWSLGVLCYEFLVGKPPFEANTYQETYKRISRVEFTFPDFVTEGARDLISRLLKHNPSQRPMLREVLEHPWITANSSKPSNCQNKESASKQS
Sequence of CK1g3 (Q9Y6M4 whole entry, the tested form may be a part): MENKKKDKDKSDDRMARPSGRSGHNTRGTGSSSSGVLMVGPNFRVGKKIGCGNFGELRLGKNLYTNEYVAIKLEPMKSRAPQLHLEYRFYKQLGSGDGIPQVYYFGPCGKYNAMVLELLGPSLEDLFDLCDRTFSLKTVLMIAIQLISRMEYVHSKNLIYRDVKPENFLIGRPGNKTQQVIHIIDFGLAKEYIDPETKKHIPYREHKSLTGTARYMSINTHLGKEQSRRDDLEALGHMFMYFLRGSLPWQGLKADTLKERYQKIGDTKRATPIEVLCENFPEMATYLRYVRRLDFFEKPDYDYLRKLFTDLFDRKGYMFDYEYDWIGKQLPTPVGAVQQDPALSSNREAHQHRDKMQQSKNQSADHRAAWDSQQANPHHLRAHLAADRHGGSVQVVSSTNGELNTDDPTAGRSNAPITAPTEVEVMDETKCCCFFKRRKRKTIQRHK

CN1CCN(Cc2ccc(Nc3ncc(Cl)c(Nc4ccccc4S(=O)(=O)N(C)C)n3)cc2)CC1 [TP-0903]
Kd [1]: < 5 nM
Kd [2]: 0.93 nM and < 5 nM
Kd [3]: < 5 nM
Kd [4]: < 5 nM
Kd [5]: 5.6 nM
Kd [6]: 0.79 to 5.6 nM
Apoptosis [7]: significant apoptosis
Apoptosis [8]: significant apoptosis
inhibition at 0.1 µM [9]: 13%
inhibition at 0.1 µM [10]: 83%
inhibition at 0.1 µM [11]: 63.2%
inhibition at 0.1 µM [12]: 95.7%
Inhibition [13]: 29.7%
Inhibition [14]: -14.0%
Inhibition ([15]; labeling site Activation Loop, peptide IGDFGLTKAIETDKEYYTVK): -56.4%
Inhibition ([15]; labeling site Lys1, peptide YDPEGDNTGEQVAVKSLKPESGGNHIADLKK): -85.5%
Inhibition [16]: -6.6%
Inhibition [17]: -57.1%
inhibition at 0.1 µM ([18]; labeling site Lys1, peptide IGQGASGTVFTATDVALGQEVAIKQINLQK): -53.1%
inhibition at 0.1 µM ([18]; labeling site Other, peptide KNPQAVLDVLKFYDSNTVK): -21.3%
inhibition at 0.1 µM [19]: -17.8%
Inhibition ([20]; labeling site Activation Loop, peptide IGDFGLVTSLKNDGKR): -16.3%
Inhibition ([20]; labeling site Lys2, peptide DLKPSNIFLVDTK): -9.9%
inhibition at 0.1 µM [21]: 7%
inhibition at 0.1 µM ([22]; labeling site Lys1, peptide YVAVKIHQLNK): -7.2%
inhibition at 0.1 µM ([22]; labeling site Lys2, peptide YLNEIKPPIIHYDLKPGNILLVNGTACGEIK): -3.1%
